In patent publication US9062039B2, “Therapeutic compounds” (CHANGZHOU LE SUN PHARMACEUTICALS LIMITED, priority 2012, dated 2015):
Read-outs that look alike come from different tables or passages of the source.

Assays:
[1] = tested on: primary CLL cells co-cultured with CD40L-expressing mouse embryonic fibroblasts; conditions: fludarabine alone; Walsby et al. 2012; cited from earlier work
[2] = Determination of pharmacokinetics in mice; type: in vivo; conditions: male, CD1, mouse, plasma; Mice PK, 10 mg/kg, po; read-out: Oral bioavailability F %
Experimental: For PK measurements male adult CD1 mice weighing 25-30 g (Charles River) are split into weight matched groups of 3 per group. The mice were held at the scruff of the neck and orally dosed via a metal gavage directly into the stomach. Immediately after dosing mice are returned to their cage, plastic box cage with sawdust bedding, and food and water available. Blood samples were collected from the mouse under anaesthesia by cardiac puncture using a 1 mL syringe and 25 gauge needle at time zero and at intervals up to 8 h. Harvested blood was centrifuged at 7000×G for 2 minutes, and the plasma aspirated and frozen at −20° C. until analysis. Quantitative compound level analysis was carried out using LC-MS/MS methods. Pharmacokinetic data derived using PK Solutions 2.0, non-compartmental analysis. Oral bioavailability (% F) was calculated by taking the ratio of dose-normalised AUC values from oral versus parenteral dosing.

[3] = tested on: Normal T-cells; assay: Ex vivo CLL assay (Annexin V apoptosis, flow cytometry); type: cell-based, human; conditions: up to 48 h
[4] = tested on: Patient CLL B-cells; assay: as above; type: cell-based, human; conditions: up to 48 h
[5] = tested on: Normal B-cells; assay: as above; type: cell-based, human; conditions: up to 48 h
[6] = tested on: MCF-7 (human breast carcinoma); assay: 48h MTT proliferation assay; type: cell-based
[7] = tested on: HCT-116 (human colon carcinoma); assay: 48h MTT proliferation assay; type: cell-based
[8] = tested on: MCL1 transcription in CLL cells; assay: Real-time reverse transcription-PCR of MCL1; type: cell-based, human; conditions: 4 h, with and without CD40L co-culture
Experimental: CDKI-73, 100:1) for 4 h using the method described by Walsby et al. (Oncotarget 3, 525-34 (2012)).

[9] = tested on: MCL1, BCL2, XIAP, CCND1 and CCND2 expression in CLL cells; assay: Gene expression profiling (Affymetrix microarray); type: cell-based, human
From the text: The detailed protocol for sample preparation and microarray processing is available from Affymetrix (http://www.affymetrix.com). […] After second strand synthesis, the resulting cDNA was subjected to an in vitro transcription reaction using a Bioarray kit (Enzo Diagnostics, New York, N.Y., USA) to generate biotinylated cRNA. This was subsequently fragmented and hybridized to the Affymetrix U133 2.0 Gene Chips. After hybridization, each microarray was washed, stained and scanned with an argon-ion confocal laser, with excitation at 488 nm and detection at 570 nm. The significance of differences between experimental conditions was determined using the Student's t test for paired and unpaired observations. To assess the interaction between agents, the median effect method was employed using CalcuSyn software (CalcuSyn; Biosoft International, Ferguson, Mo.). The combination index was calculated for the two-drug combination using an experimentally determined fixed concentration ratio. […] Affymetrix gene expression data were processed using Partek Genomics Suite (Partek Inc. Saint Louis, USA).

[10] = tested on: primary CLL cells co-cultured with CD40L-expressing mouse embryonic fibroblasts; assay: Synergy between CDKI-73 and fludarabine under CD40L co-culture; type: cell-based, human; conditions: CDKI-73 combined with fludarabine, other two additive
Experimental: Lymphocytes were separated using Ficoll-Hypaque (Sigma, Poole, UK) and autologous plasma was collected for use in some experiments. Separated lymphocytes were maintained in RPMI medium supplemented with 10% fetal bovine serum (FBS), penicillin (50 U/ml), streptomycin (50 μg/ml) and recombinant human IL-4 (R and D Systems, Abingdon, UK) (5 ng/ml). […] The significance of differences between experimental conditions was determined using the Student's t test for paired and unpaired observations. To assess the interaction between agents, the median effect method was employed using CalcuSyn software (CalcuSyn; Biosoft International, Ferguson, Mo.). The combination index was calculated for the two-drug combination using an experimentally determined fixed concentration ratio.

[11] = MCF7, read-out: 48h-MTT Anti-proliferative activity GI50 MCF-7 (human breast carcinoma), Table 2, 48 h
[12] = MCF7, read-out: 48h-MTT cytotoxicity GI50 MCF-7, Table 1, 48 h
[13] = HCT-116, read-out: 48h-MTT Anti-proliferative activity GI50 HCT-116 (human colon carcinoma), Table 2, 48 h
[14] = HCT-116, read-out: 48h-MTT cytotoxicity GI50 HCT-116, Table 1, 48 h

## Nc1nc(F)nc2c1ncn2[C@@H]1O[C@H](CO)[C@@H](O)[C@@H]1O [fludarabine]
[1]
  cytotoxic effects of fludarabine under CD40L co-culture: completely abrogates

## CNc1nc(C)c(-c2nc(Nc3cccc(S(N)(=O)=O)c3)ncc2C#N)s1 [Comparator, 3-(5-cyano-4-(4-methyl-2-(methylamino)thiazol-5-yl)pyrimidin-2-ylamino)benzenesulfonamide, reference compound]
[2]
  bioavailability: 7%
[3]
  Ex vivo efficacy, LD50 Normal T-cells: 350 µM
[4]
  Ex vivo efficacy, LD50 Patient CLL B-cells: 0.43 µM
[5]
  Ex vivo efficacy, LD50 Normal B-cells: 89 µM
[6]; [11]
  GI50: 480 nM
[6]; [12]
  GI50: 480 nM
[7]; [13]
  GI50: 430 nM
[7]; [14]
  GI50: 440 nM

## CNc1nc(C)c(-c2nc(Nc3cccc(S(N)(=O)=O)c3)ncc2F)s1 [Example 1, 3-(5-Fluoro-4-(4-methyl-2-(methylamino)thiazol-5-yl)pyrimidin-2-ylamino)benzene sulfonamide]
[8]; CDKI-73 in combination with fludarabine (100:1)
  MCL1 transcription (QRT-PCR): significantly inhibited
[8]; single agent
  MCL1 transcription (QRT-PCR): significantly inhibited
[2]
  bioavailability: 56%
[9]; combination 0.1 μM CDKI-73 and 10 μM fludarabine, 4 h
  expression of MCL1, BCL2, XIAP and CCND1 and D2: marked repression
[9]; single agent, 0.1 μM CDKI-73, 4 h
  expression of MCL1, BCL2, XIAP and CCND1 and CCND2: down regulated
[10]
  samples tested that showed cytotoxic synergy: 8/10
[3]
  Ex vivo efficacy, LD50 Normal T-cells: 506.3 µM
[4]
  Ex vivo efficacy, LD50 Patient CLL B-cells: 0.08 µM
[5]
  Ex vivo efficacy, LD50 Normal B-cells: 40.5 µM
[6]; [11]
  GI50: 50 nM
[6]; [12]
  GI50: 30 nM
[7]; [13]
  GI50: 60 nM
[7]; [14]
  GI50: 30 nM

## CNc1nc(C)c(-c2nc(Nc3cccc(S(N)(=O)=O)c3)ncc2Cl)s1 [Example 3, 3-(5-chloro-4-(4-methyl-2-(methylamino)thiazol-5-yl)pyrimidin-2-ylamino)benzene sulfonamide]
[6]; [12]
  GI50: 60 nM
[7]; [14]
  GI50: 30 nM
